Measurements published in ChEMBL document CHEMBL6109072, “Discovery of highly potent dual GSPT1/BRD4 degraders with anti-AML activity” (Eur J Med Chem, 2025).
Active and inactive are the calls of the source. No cut-off for these calls is given here.

Key:
THP-1 = test: Antiproliferative activity against human THP-1 cells incubated for 3 days by CCK8 assay; format: functional, cell-based; details: THP-1, 72 h
MOLM-13 [1] = test: Induction of apoptosis in human MOLM-13 cells assessed as viable cells at 0.1 uM incubated for 24 hrs by Annexin V-APC/7-AAD staining based flow cytometry (reference value: 97.12 %); format: functional; details: read-out: Activity
MOLM-13 [2] = test: Induction of apoptosis in human MOLM-13 cells assessed as early apoptotic cells at 0.1 uM incubated for 6 hrs by Annexin V-APC/7-AAD staining based flow cytometry (reference value: 0.08 %); format: functional
MOLM-13 [3] = test: Induction of apoptosis in human MOLM-13 cells assessed as early apoptotic cells at 0.1 uM incubated for 12 hrs by Annexin V-APC/7-AAD staining based flow cytometry (reference value: 0.08 %); format: functional
MOLM-13 [4] = test: Antiproliferative activity against human MOLM-13 cells assessed as cell viability at 0.1 uM incubated for 3 days by CCK8 assay relative to control; format: functional; details: MOLM-13, 72 h, time 3 day, read-out: Activity
MOLM-13 [5] = test: Antitumor activity against human MOLM-13 cells expressing GFP-Fluc xenografted in IL2Rg-null NSG mouse assessed as reduction in spleen weight at 2.5 mg/kg, ip bid treated for 21 days; format: functional, organism-based; details: time 21.0 day
[6] = Toxicity in IL2Rg-null NSG mouse xenografted with human MOLM-13 cells expressing GFP-Fluc assessed as body weight change at 2.5 mg/kg, ip bid treated for 18 days; format: organism-based; details: in vivo, 432 h, time 18 day
MOLM-13 [7] = test: Induction of apoptosis in human MOLM-13 cells assessed as viable cells at 0.1 uM incubated for 12 hrs by Annexin V-APC/7-AAD staining based flow cytometry (reference value: 97.12 %); format: functional; details: read-out: Activity
[8] = molecular target: T1, Protein cereblon/Bromodomain-containing protein 4 (Homo sapiens, UniProt O60885+Q96SW2); test: PROTAC activity at CRBN/BRD4 in human MOLM-13 cells assessed as BRD4 degradation incubated for 24 hrs by Western blot analysis; format: cell-based
Daudi = test: Antiproliferative activity against human Daudi cells incubated for 3 days by CCK8 assay; format: functional, cell-based; details: 72 h
MOLM-13 [9] = test: Antitumor activity against human MOLM-13 cells expressing GFP-Fluc xenografted in IL2Rg-null NSG mouse assessed as reduction in GFP-positive leukemic cells in bone marrow at 2.5 mg/kg, ip bid treated for 21 days by flow cytometry; format: functional, organism-based; details: time 21.0 day
MOLM-13 [10] = test: Induction of apoptosis in human MOLM-13 cells assessed as viable cells at 0.1 uM incubated for 6 hrs by Annexin V-APC/7-AAD staining based flow cytometry (reference value: 97.12 %); format: functional; details: read-out: Activity
[11] = Toxicity in IL2Rg-null NSG mouse xenografted with human MOLM-13 cells expressing GFP-Fluc assessed as drug tolerance at 2.5 mg/kg, ip bid treated for 18 days; format: organism-based; details: in vivo, 432 h, time 18 day
OCI-AML-3 = test: Antiproliferative activity against human OCI-AML-3 cells incubated for 3 days by CCK8 assay; format: functional, cell-based; details: Homo sapiens, OCI-AML-3, 72 h
MOLM-13 [12] = test: Antitumor activity against human MOLM-13 cells expressing GFP-Fluc xenografted in IL2Rg-null NSG mouse assessed as reduction in GFP-positive leukemic cells in peripheral blood at 2.5 mg/kg, ip bid treated for 21 days by flow cytometry; format: functional, organism-based; details: time 21.0 day
[13] = Cytotoxicity in human PBMC cells at 62.5 to 1000 nM; format: toxicity, cell-based; details: 1 µM, dose 62.5-1000 nM
NB-4 = test: Antiproliferative activity against human NB4 cells incubated for 3 days by CCK8 assay; format: functional, cell-based; details: NB-4, 72 h
KARPAS-299 = test: Antiproliferative activity against human KARPAS-299 cells incubated for 3 days by CCK8 assay; format: functional, cell-based; details: Homo sapiens, KARPAS-299, 72 h
MOLM-13 [14] = test: Induction of apoptosis in human MOLM-13 cells assessed as late apoptotic cells at 0.1 uM incubated for 6 hrs by Annexin V-APC/7-AAD staining based flow cytometry (reference value: 0.01 %); format: functional
[15] = molecular target: T2, Protein cereblon/Eukaryotic peptide chain release factor GTP-binding subunit ERF3A (Homo sapiens, UniProt Q96SW2+P15170); test: PROTAC activity at CRBN/GSPT1 in human MOLM-13 cells assessed as GSPT1 degradation incubated for 24 hrs by Western blot analysis; format: cell-based
Target sequence in this assay (Q96SW2 whole entry): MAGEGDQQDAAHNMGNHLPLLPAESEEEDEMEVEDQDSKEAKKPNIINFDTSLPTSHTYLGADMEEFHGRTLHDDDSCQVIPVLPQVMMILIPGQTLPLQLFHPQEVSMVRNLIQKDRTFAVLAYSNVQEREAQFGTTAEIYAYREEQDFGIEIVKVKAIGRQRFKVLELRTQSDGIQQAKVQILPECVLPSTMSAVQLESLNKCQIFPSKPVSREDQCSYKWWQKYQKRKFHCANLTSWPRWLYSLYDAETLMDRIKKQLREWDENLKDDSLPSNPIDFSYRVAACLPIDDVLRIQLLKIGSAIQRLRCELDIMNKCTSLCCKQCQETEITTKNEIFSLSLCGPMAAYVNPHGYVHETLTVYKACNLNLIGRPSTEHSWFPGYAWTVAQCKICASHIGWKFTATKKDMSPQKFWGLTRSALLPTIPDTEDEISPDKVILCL
Target sequence in this assay (P15170 whole entry): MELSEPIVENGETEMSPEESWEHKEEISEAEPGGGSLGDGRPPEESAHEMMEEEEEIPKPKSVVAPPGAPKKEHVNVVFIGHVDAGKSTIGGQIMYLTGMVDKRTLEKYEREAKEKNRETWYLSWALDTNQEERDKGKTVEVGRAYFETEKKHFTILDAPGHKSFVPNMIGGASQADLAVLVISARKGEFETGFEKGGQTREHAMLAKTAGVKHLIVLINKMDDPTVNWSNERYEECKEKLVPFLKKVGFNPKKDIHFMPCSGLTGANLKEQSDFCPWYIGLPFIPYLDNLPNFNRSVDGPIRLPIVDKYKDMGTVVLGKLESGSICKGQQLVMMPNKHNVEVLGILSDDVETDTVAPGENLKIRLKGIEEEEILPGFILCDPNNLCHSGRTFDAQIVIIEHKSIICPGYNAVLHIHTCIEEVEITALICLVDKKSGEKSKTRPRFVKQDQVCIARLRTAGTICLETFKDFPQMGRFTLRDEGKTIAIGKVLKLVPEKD

MOLM-13 [16] = test: Induction of apoptosis in human MOLM-13 cells assessed as necrotic cells at 0.1 uM incubated for 6 hrs by Annexin V-APC/7-AAD staining based flow cytometry (reference value: 2.79 %); format: functional
[17] = molecular target: T1, Protein cereblon/Bromodomain-containing protein 4; test: PROTAC activity at CRBN/BRD4 in human MOLM-13 cells assessed as BRD4 degradation at 1 uM incubated for 24 hrs by Western blot analysis; format: cell-based
MOLM-13 [18] = test: Induction of cell cycle arrest in human MOLM-13 cells assessed as accumulation at G1 phase at 0.1 uM incubated for 6 to 12 hrs by PI staining based flow cytometry; format: functional; details: time 6-12 hrs
MOLM-13 [19] = test: Antitumor activity against human MOLM-13 cells expressing GFP-Fluc xenografted in IL2Rg-null NSG mouse assessed as reduction in leukemia burden at 2.5 mg/kg, ip bid treated for 21 days by bioluminescence imaging based analysis; format: functional, organism-based; details: time 21.0 day
SU-DHL-1 = test: Antiproliferative activity against human SU-DHL-1 cells incubated for 3 days by CCK8 assay; format: functional, cell-based; details: SU-DHL-1, 72 h
MOLM-13 [20] = test: Antitumor activity against human MOLM-13 cells expressing GFP-Fluc xenografted in IL2Rg-null NSG mouse assessed as prolongation of median survival time at 2.5 mg/kg, ip bid treated for 21 days; format: functional, organism-based; details: time 21.0 day
MOLM-13 [21] = test: Antitumor activity against human MOLM-13 cells expressing GFP-Fluc xenografted in IL2Rg-null NSG mouse assessed as reduction in GFP-positive leukemic cells in spleen at 2.5 mg/kg, ip bid treated for 21 days by flow cytometry; format: functional, organism-based; details: time 21.0 day
MOLM-13 [22] = test: Induction of apoptosis in human MOLM-13 cells assessed as necrotic cells at 0.1 uM incubated for 12 hrs by Annexin V-APC/7-AAD staining based flow cytometry (reference value: 2.79 %); format: functional
Raji = test: Antiproliferative activity against human Raji cells incubated for 3 days by CCK8 assay; format: functional, cell-based; details: 72 h
HL-60 = test: Antiproliferative activity against human HL-60 cells incubated for 3 days by CCK8 assay; format: functional, cell-based; details: HL-60, 72 h
MOLM-13 [23] = test: Induction of apoptosis in human MOLM-13 cells assessed as necrotic cells at 0.1 uM incubated for 24 hrs by Annexin V-APC/7-AAD staining based flow cytometry (reference value: 2.79 %); format: functional
MOLM-13 [24] = test: Induction of apoptosis in human MOLM-13 cells assessed as late apoptotic cells at 0.1 uM incubated for 12 hrs by Annexin V-APC/7-AAD staining based flow cytometry (reference value: 0.01 %); format: functional
MOLM-13 [25] = test: Antiproliferative activity against human MOLM-13 cells incubated for 3 days by CCK8 assay; format: functional, cell-based; details: MOLM-13, 72 h
[26] = molecular target: T1, Protein cereblon/Bromodomain-containing protein 4; test: PROTAC activity at CRBN/BRD4 in human MOLM-13 cells assessed as BRD4 degradation at 100 nM incubated for 6 hrs by Western blot analysis; format: cell-based
MOLM-13 [27] = test: Induction of apoptosis in human MOLM-13 cells assessed as late apoptotic cells at 0.1 uM incubated for 24 hrs by Annexin V-APC/7-AAD staining based flow cytometry (reference value: 0.01 %); format: functional
MOLM-13 [28] = test: Induction of apoptosis in human MOLM-13 cells assessed as early apoptotic cells at 0.1 uM incubated for 24 hrs by Annexin V-APC/7-AAD staining based flow cytometry (reference value: 0.08 %); format: functional
[29] = molecular target: T2, Protein cereblon/Eukaryotic peptide chain release factor GTP-binding subunit ERF3A; test: PROTAC activity at CRBN/GSPT1 in human MOLM-13 cells assessed as GSPT1 degradation at 100 nM incubated for 6 hrs by Western blot analysis; format: cell-based
Target sequence in this assay (P15170 whole entry, looked up): as the sequence (P15170 whole entry) above
Target sequence in this assay (Q96SW2 whole entry, looked up): as the sequence (Q96SW2 whole entry) above

T1 sequence (Q96SW2 whole entry, looked up, other chains not shown): as the sequence (Q96SW2 whole entry) above

- IC50 (THP-1): 18 nM
- DC50 [8]: 0.48 nM
- IC50 (Daudi): 8.92 nM
- IC50 (OCI-AML-3): 14.4 nM
- IC50 (KARPAS-299): 25.5 nM
- DC50 [15]: 5.25 nM
- Activity [17]: Active
- IC50 (SU-DHL-1): 6.29 nM
- IC50 (Raji): 10.1 nM
- IC50 (HL-60): 8.19 nM
- IC50 (MOLM-13 [25]): 8.55 nM
- Activity [26]: Active
- Activity [29]: Active
SMILES: Cc1sc2c(c1C)C(c1ccc(Cl)cc1)=N[C@@H](CC(=O)N1CCN(CC3CCN(c4ccc5c(c4)C(=O)N(C4CCC(=O)NC4=O)C5=O)CC3)CC1)c1nnc(C)n1-2 (some centres not stated)
- viability at 0.1 µM (MOLM-13 [1]): 10.2%
- Activity (MOLM-13 [2]): 20.64%
- Activity (MOLM-13 [3]): 39.9%
- viability at 0.1 µM (MOLM-13 [4]): 7.02%
- Activity (MOLM-13 [5]): Active; Compound Activity Consistent With Decreased Leukemic Infiltration
- Activity [6]: Non-toxic
- viability at 0.1 µM (MOLM-13 [7]): 57.8%
- Activity (MOLM-13 [9]): Active
- viability at 0.1 µM (MOLM-13 [10]): 78.7%
- Activity [11]: Non-toxic
- Activity (MOLM-13 [12]): Active
- Activity [13]: Non-toxic
- IC50 (NB-4): 2.69 nM
- Activity (MOLM-13 [14]): 0.3%
- Activity (MOLM-13 [16]): 0.36%
- Activity (MOLM-13 [18]): Active
- Activity (MOLM-13 [19]): Active
- Activity (MOLM-13 [20]): Active
- Activity (MOLM-13 [21]): Active
- Activity (MOLM-13 [22]): 0.26%
- Activity (MOLM-13 [23]): 1.18%
- Activity (MOLM-13 [24]): 2.01%
- Activity (MOLM-13 [27]): 21.1%
- Activity (MOLM-13 [28]): 67.5%
